The IC50 is the midpoint of a concentration-inhibition curve.

Structures are written as SMILES. A value given as a limit tells only on which side of the number the result lay.

The values that follow come from US9504669B2, “Spliceostatin analogs and methods for their preparation” (PFIZER INC., priority 2012, dated 2016).

Holding throughout (type): cell-based
Assay [1] deals with N87 (gastric cancer) cells. Briefly: In vitro cell assay (MTS cell viability), N87. As to conditions: 96 h, free compounds (natural products and synthetic analogs); cell viability 96 hours after treatment. The method in brief: (§1)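 Cells seeded 24 h, then treated with antibody-drug conjugates or free drug, 3-fold serial dilutions at 10 concentrations in duplicate. Viability by MTS at 96 h as percent of untreated control; IC50 from four-parameter logistic fit.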

Assay [2] concerns MDA-MB-361-DYT2 (breast cancer) cells. Briefly: In vitro cell assay (MTS cell viability), MDA-MB-361-DYT2. As to conditions: 96 h, free compounds (natural products and synthetic analogs); cell viability 96 hours after treatment. The method in brief:
as §1

Assay [3] concerns MDA-MB-468 cells (target non-expressing). Briefly: In vitro cell assay (MTS cell viability), MDA-MB-468. As to conditions: Homo sapiens, MDA-MB-468, 96 h, read-out: MDA-MB-468 IC50 (nM). On the procedure: Target expressing (BT474 (breast cancer), N87 (gastric cancer), HCC1954 (breast cancer), MDA-MB-361-DYT2 (breast cancer)) or non-expressing (MDA-MB-468) cells were seeded in 96-well cell culture plates for 24 hours before treatment. Cells were treated with 3-fold serially diluted antibody-drug conjugates or free compounds (i.e., no antibody conjugated to the drug) in duplicate at 10 concentrations. Cell viability was determined by CellTiter 96® AQueous One Solution Cell Proliferation MTS Assay (Promega, Madison Wis.) 96 hours after treatment. Relative cell viability was determined as percentage of untreated control. IC50 values were calculated using a four parameter logistic model #203 with XLfit v4.2 (IDBS, Guildford, Surry, UK). The potency ranged upward from 0.0002 nm. Similar procedures and techniques were employed.

Assay [4] relates to BT474 (breast cancer) cells. Put plainly: In vitro cell assay (MTS cell viability), BT474. As to conditions: Homo sapiens, BT-474; free compounds (natural products and synthetic analogs); cell viability 96 hours after treatment. Put shortly:
as §1

In the case of `CC(=O)O[C@@H](C)/C=C\C(=O)N[C@@H]1C[C@H](C)[C@H](C/C=C(C)/C=C/[C@@H]2CC(C)=CC(=O)O2)O[C@@H]1C` [#NP11, (2S,3Z)-5-{[(2R,3R,5S,6S)-2,5-dimethyl-6-{(2E,4E)-3-methyl-5-[(2S)-4-methyl-6-oxo-3,6-dihydro-2H-pyran-2-yl]penta-2,4-dien-1-yl}tetrahydro-2H-pyran-3-yl]amino}-5-oxopent-3-en-2-yl acetate], the IC50 in assay [1] turned out to be 3.67 nM; in assay [2], 4.16 nM; in assay [3], 1.55 nM; in assay [4], 3.72 nM.
As to `CC(=O)O[C@@H](C)/C=C\C(=O)N[C@@H]1C[C@H](C)[C@H](C/C=C(C)/C=C/C2CC(O)(CCl)CC(CC(=O)O)O2)O[C@@H]1C` (stereo partly drawn) [#NP8, [6-{(1E,3E)-5-[(2S,3S,5R,6R)-5-{[(2Z,4S)-4-(acetyloxy)pent-2-enoyl]amino}-3,6-dimethyltetrahydro-2H-pyran-2-yl]-3-methylpenta-1,3-dien-1-yl}-4-(chloromethyl)-4-hydroxytetrahydro-2H-pyran-2-yl]acetic acid], the IC50 came out at 0.643 nM in assay [1], 1.35 nM in assay [3] and 1.94 nM in assay [4].
With `CCCC(=O)NC[C@@H]1C[C@@]2(CO2)C[C@@H](/C=C/C(C)=C/C[C@@H]2O[C@H](C)[C@H](NC(=O)/C=C\[C@H](C)OC(C)=O)C[C@@H]2C)O1` [#B173, (2S,3Z)-5-({(2R,3R,5S,6S)-6-[(2E,4E)-5-{(3R,5S,7S)-7-[(butanoylamino)methyl]-1,6-dioxaspiro[2.5]oct-5-yl}-3-methylpenta-2,4-dien-1-yl]-2,5-dimethyltetrahydro-2H-pyran-3-yl}amino)-5-oxopent-3-en-2-yl acetate], the IC50 was determined as 6.38 nM in assay [1], 29.1 nM in assay [2], 7.85 nM in assay [3] and 3.64 nM in assay [4].
In the case of `CCCNC(=O)C[C@@H]1C[C@@]2(CO2)[C@H](O)[C@@H](/C=C/C(C)=C/C[C@@H]2O[C@H](C)[C@H](NC(=O)/C=C\[C@H](C)OC(=O)N3CCCCC3)C[C@@H]2C)O1` [#B66, (2S,3Z)-5-({(2R,3R,5S,6S)-6-[(2E,4E)-5-{(3R,4R,5R,7S)-4-hydroxy-7-[2-oxo-2-(propylamino)ethyl]-1,6-dioxaspiro[2.5]oct-5-yl}-3-methylpenta-2,4-dien-1-yl]-2,5-dimethyltetrahydro-2H-pyran-3-yl}amino)-5-oxopent-3-en-2-yl piperidine-1-carboxylate], the IC50 is 1.58 nM in assay [1], 0.27 nM in assay [3] and 0.18 nM in assay [4].
In the case of `CC(=O)O[C@@H](C)/C=C\C(=O)N[C@@H]1C[C@H](C)[C@H](C/C=C(C)/C=C/[C@H]2O[C@H](CC(=O)N[C@H]3C[C@H](N)C3)C[C@@]3(CO3)[C@@H]2O)O[C@@H]1C` [#B73, (2S,3Z)-5-{[(2R,3R,5S,6S)-6-{(2E,4E)-5-[(3R,4R,5R,7S)-7-{2-[(trans-3-aminocyclobutyl)amino]-2-oxoethyl}-4-hydroxy-1,6-dioxaspiro[2.5]oct-5-yl]-3-methylpenta-2,4-dien-1-yl}-2,5-dimethyltetrahydro-2H-pyran-3-yl]amino}-5-oxopent-3-en-2-yl acetate], the IC50 in assay [1] is 174 nM; in assay [2], 443 nM; in assay [3], 276 nM; in assay [4], 296 nM.
In the same order, the values of `CCCNC(=O)C[C@@H]1C[C@@]2(CO2)[C@H](O)[C@@H](/C=C/C(C)=C/C[C@@H]2O[C@H](C)[C@H](NC(=O)/C=C\[C@H](C)OC(C)=O)C[C@@H]2C)O1` [#B63, (2S,3Z)-5-({(2R,3R,5S,6S)-6-[(2E,4E)-5-{(3R,4R,5R,7S)-4-hydroxy-7-[2-oxo-2-(propylamino)ethyl]-1,6-dioxaspiro[2.5]oct-5-yl}-3-methylpenta-2,4-dien-1-yl]-2,5-dimethyltetrahydro-2H-pyran-3-yl}amino)-5-oxopent-3-en-2-yl acetate] are 1.1 nM, 0.293 nM, 0.348 nM and 0.651 nM.
In the same order, the values of `CC(=O)O[C@@H](C)/C=C\C(=O)N[C@@H]1C[C@H](C)[C@H](C/C=C(C)/C=C/[C@@H]2C[C@]3(CO3)C[C@@H](CC(N)=O)O2)O[C@@H]1C` [#B15, (2S,3Z)-5-{[(2R,3R,5S,6S)-6-{(2E,4E)-5-[(3S,5S,7S)-7-(2-amino-2-oxoethyl)-1,6-dioxaspiro[2.5]oct-5-yl]-3-methylpenta-2,4-dien-1-yl}-2,5-dimethyltetrahydro-2H-pyran-3-yl]amino}-5-oxopent-3-en-2-yl acetate] are 0.203 nM, 0.537 nM, 0.363 nM and 0.522 nM.
In the case of `CC(=O)OCC1(O)CC(/C=C/C(C)=C/C[C@@H]2O[C@H](C)[C@H](NC(=O)/C=C\[C@H](C)OC(C)=O)C[C@@H]2C)OC(CC(=O)O)C1` (stereo partly drawn) [#NP7, (4-[(acetyloxy)methyl]-6-{(1E,3E)-5-[(2S,3S,5R,6R)-5-{[(2Z,4S)-4-(acetyloxy)pent-2-enoyl]amino}-3,6-dimethyltetrahydro-2H-pyran-2-yl]-3-methylpenta-1,3-dien-1-yl}-4-hydroxytetrahydro-2H-pyran-2-yl)acetic acid], the IC50 in assay [1], in assay [3] and in assay [4] was more than 100 nM each time.
As to `CCCNC(=O)C(C)(C)NC(=O)C[C@@H]1C[C@@]2(CO2)[C@H](O)[C@@H](/C=C/C(C)=C/C[C@@H]2O[C@H](C)[C@H](NC(=O)/C=C\[C@H](C)OC(C)=O)C[C@@H]2C)O1` [#B81, (2S,3Z)-5-{[(2R,3R,5S,6S)-6-{(2E,4E)-5-[(3R,4R,5R,7S)-4-hydroxy-7-(2-{[2-methyl-1-oxo-1-(propylamino)propan-2-yl]amino}-2-oxoethyl)-1,6-dioxaspiro[2.5]oct-5-yl]-3-methylpenta-2,4-dien-1-yl}-2,5-dimethyltetrahydro-2H-pyran-3-yl]amino}-5-oxopent-3-en-2-yl acetate], the half-maximal inhibitory concentration (IC50) was 70.7 nM in assay [1], more than 100 nM in assay [2], more than 100 nM in assay [3] and more than 100 nM in assay [4].
Turning to `CC(=O)O[C@@H](C)/C=C\C(=O)N[C@@H]1C[C@H](C)[C@H](C/C=C(C)/C=C/[C@H]2OC(C)(O)C(O)C(O)(CO)C2O)O[C@@H]1C` (stereo partly drawn) [#NP6, (6R)-6-{(1E,3E)-5-[(2S,3S,5R,6R)-5-{[(2Z,4S)-4-(acetyloxy)pent-2-enoyl]amino}-3,6-dimethyltetrahydro-2H-pyran-2-yl]-3-methylpenta-1,3-dien-1-yl}-1-deoxy-4-C-(hydroxymethyl)hex-2-ulopyranose], the IC50 in assay [1], in assay [3] and in assay [4] was more than 100 nM in each case.
Take `CCCNC(=O)C[C@@H]1C[C@@]2(CO2)C[C@@H](/C=C/C(C)=C/C[C@@H]2O[C@H](C)[C@H](NC(=O)/C=C\[C@H](C)OC(C)=O)C[C@@H]2C)O1` [#B64, (2S,3Z)-5-({(2R,3R,5S,6S)-2,5-dimethyl-6-[(2E,4E)-3-methyl-5-{(3S,5S,7S)-7-[2-oxo-2-(propylamino)ethyl]-1,6-dioxaspiro[2.5]oct-5-yl}penta-2,4-dien-1-yl]tetrahydro-2H-pyran-3-yl}amino)-5-oxopent-3-en-2-yl acetate]: the IC50 in assay [1] is 24.8 nM; in assay [3] it was 1.38 nM; in assay [4], 5.26 nM.
In the same order, the values of `CC(=O)OCC1(O)C(O)C(/C=C/C(C)=C/C[C@@H]2O[C@H](C)[C@H](NC(=O)/C=C\[C@H](C)OC(C)=O)C[C@@H]2C)OC(C)(O)C1O` (stereo partly drawn) [#NP9, 4-C-[(acetyloxy)methyl]-6-{(1E,3E)-5-[(2S,3S,5R,6R)-5-{[(2Z,4S)-4-(acetyloxy)pent-2-enoyl]amino}-3,6-dimethyltetrahydro-2H-pyran-2-yl]-3-methylpenta-1,3-dien-1-yl}-1-deoxyhex-2-ulopyranose] are 74.3 nM, 59.2 nM and 65.8 nM.
In the same order, the values of `CC(=O)O[C@@H](C)/C=C\C(=O)N[C@@H]1C[C@H](C)[C@H](C/C=C(C)/C=C/[C@H]2O[C@H](CC(=O)O)C[C@@](O)(CCl)[C@@H]2O)O[C@@H]1C` [#NP5, (5R)-5-{(1E,3E)-5-[(2S,3S,5R,6R)-5-{[(2Z,4S)-4-(acetyloxy)pent-2-enoyl]amino}-3,6-dimethyltetrahydro-2H-pyran-2-yl]-3-methylpenta-1,3-dien-1-yl}-1,5-anhydro-1-(carboxymethyl)-3-C-(chloromethyl)-2-deoxypentitol] are more than 100 nM, more than 100 nM and more than 100 nM.
On to `CSCCN(C)C(=O)C[C@@H]1C[C@@]2(CO2)C[C@@H](/C=C/C(C)=C/C[C@@H]2O[C@H](C)[C@H](NC(=O)/C=C\[C@H](C)OC(C)=O)C[C@@H]2C)O1` [#B102, (2S,3Z)-5-{[(2R,3R,5S,6S)-2,5-dimethyl-6-{(2E,4E)-3-methyl-5-[(3S,5S,7S)-7-(2-{methyl[2-(methylsulfanyl)ethyl]amino}-2-oxoethyl)-1,6-dioxaspiro[2.5]oct-5-yl]penta-2,4-dien-1-yl}tetrahydro-2H-pyran-3-yl]amino}-5-oxopent-3-en-2-yl acetate], for which the IC50 turned out to be 7.79 nM in assay [1], 32.9 nM in assay [2] and 10.7 nM in assay [4].
